Experimental data from patent US20260250257A1, “ANTIBACTERIAL AND SYNERGISTIC ACTIVE COMPOUND AND USE THEREOF” (EAST CHINA UNIVERSITY OF SCIENCE AND TECHNOLOGY, priority 2023, published 2026).

Assays:
Type in all cases: cell-based
[1] = tested on: ATCC13883 strain (Klebsiella pneumoniae); assay: Checkerboard antibacterial synergistic activity test with polymyxin E (FIC); set-up: key: FIC≤0.5 synergy; 0.5–1 additive; 1–2 indifferent; ≥2 antagonism; conditions: combined with polymyxin E
Procedure: (§1) Polymyxin E was diluted in sterile MH broth medium to concentrations of 16, 8, 4, 2, 1, 0.5, 0.25, 0.125, 0.0625, 0.031, and 0.015 μg/ml, and the drug to be tested was diluted to concentrations of 256, 128, 64, 32, 16, 8, and 4 μg/ml. According to the checkerboard method, combinations of the drug to be tested and polymyxin at different concentrations in ascending order were placed into a 96-well plate, and corresponding blank control groups were set up. 50 μl of the drug solution was added to each well, then 100 μl of bacterial liquid was added, and incubated in a 37° C. incubator for 16 hours. […] Calculation and judgment criteria:
(§2) Fractional Inhibitory Concentration (FIC) is calculated as follows: […]
(§3) Judgment criteria: FIC≤0.5: synergistic effect; 0.5<FIC<1: additive effect; 1<FIC<2: indifferent effect; FIC≥2: antagonistic effect.
(§4) In the table: ATCC19606 strain is Acinetobacter baumannii, ATCC25922 strain is Escherichia coli, ATCC13883 strain is Klebsiella pneumoniae, ATCC9027 strain is Pseudomonas aeruginosa. All four strains were purchased from ATCC.

[2] = tested on: ATCC19606 strain (Acinetobacter baumannii); assay: as above; set-up: key: FIC≤0.5 synergy; 0.5–1 additive; 1–2 indifferent; ≥2 antagonism; conditions: combined with polymyxin E
Procedure: as §1, §2, §3, §4

[3] = tested on: ATCC25922 strain (Escherichia coli); assay: as above; set-up: key: FIC≤0.5 synergy; 0.5–1 additive; 1–2 indifferent; ≥2 antagonism; conditions: combined with polymyxin E
Procedure: as §1, §2, §3, §4

[4] = tested on: ATCC9027 strain (Pseudomonas aeruginosa); assay: as above; set-up: key: FIC≤0.5 synergy; 0.5–1 additive; 1–2 indifferent; ≥2 antagonism; conditions: combined with polymyxin E
Procedure: as §1, §2, §3, §4

[5] = tested on: ATCC13883 strain (Klebsiella pneumoniae); assay: Broth microdilution, antibacterial activity of the compound used alone
Text: (§5) The broth microdilution method was used to test the antibacterial effects of the compounds of the present invention against various Gram-negative bacterial strains when used alone.

[6] = tested on: ATCC19606 strain (Acinetobacter baumannii); assay: as above
Text: as §5

[7] = tested on: ATCC25922 strain (Escherichia coli); assay: as above
Text: as §5

[8] = tested on: ATCC9027 strain (Pseudomonas aeruginosa); assay: as above
Text: as §5

Structure (SMILES)	Synergistic activity (FIC value) ATCC13883 [1]	Synergistic activity (FIC value) ATCC19606 [2]	Synergistic activity (FIC value) ATCC25922 [3]	Synergistic activity (FIC value) ATCC9027 [4]	Antibacterial activity of the compound of Formula I, ATCC13883 [5] [µg/mL]	Antibacterial activity of the compound of Formula I, ATCC19606 [6] [µg/mL]	Antibacterial activity of the compound of Formula I, ATCC25922 [7] [µg/mL]	Antibacterial activity of the compound of Formula I, ATCC9027 [8] [µg/mL]
CC(C)(C)c1ccccc1-c1coc(N=C(N)N)n1 [Compound I-10]	1.25	1.25	0.5	1.25	256	256	256	256
CC(C)(C)c1cccc(-c2c[se]c(N=C(N)N)n2)c1 [Compound I-11]	0.25	0.3	0.5	0.63	256	256	256	256
CC(C)(C)c1ccc(-c2c[nH]c(N=C(N)N)n2)cc1 [Compound I-12]	0.25	0.28	0.5	0.63	256	256	256	256
CC(C)(C)c1cc(-c2csc(N=C(N)N)n2)cc(C(C)(C)C)c1 [Compound I-13]	0.33	0.15	0.39	0.62	256	256	256	256
CC(C)c1ccccc1-c1coc(N=C(N)N)n1 [Compound I-15]	1.25	1.25	0.5	1.25	256	256	256	256
CC(C)c1cccc(-c2c[nH]c(N=C(N)N)n2)c1 [Compound I-16]	0.25	0.3	0.5	0.63	256	256	256	256
CC(C)c1ccc(-c2csc(N=C(N)N)n2)cc1 [Compound I-17]	0.25	0.28	0.5	0.63	256	256	256	256
CC(C)c1cc(-c2c[se]c(N=C(N)N)n2)cc(C(C)C)c1 [Compound I-18]	0.33	0.15	0.39	0.62	256	256	256	256
